Here are results for 61 compounds from PubChem BioAssay AID1259375 (The Scripps Research Institute Molecular Screening Center, 2018).

This test addresses Microphthalmia-associated transcription factor (Homo sapiens) (UniProt O75030). Kind of test: MITF inhibitors by FRET titration, dose response, biochemical, high throughput (AID 1259375).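 Further: FRET between CFP-tagged and YFP-tagged MITF protein partners.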 Particulars: FRET biochemical assay, MITF inhibition.

The structures appear in SMILES notation. Calls of active or inactive are those of the source. How the calls were made is not given here. A value given as a limit tells only on which side of the number the result lay.

Microphthalmia-associated transcription factor (Homo sapiens), sequence (O75030 whole entry, looked up): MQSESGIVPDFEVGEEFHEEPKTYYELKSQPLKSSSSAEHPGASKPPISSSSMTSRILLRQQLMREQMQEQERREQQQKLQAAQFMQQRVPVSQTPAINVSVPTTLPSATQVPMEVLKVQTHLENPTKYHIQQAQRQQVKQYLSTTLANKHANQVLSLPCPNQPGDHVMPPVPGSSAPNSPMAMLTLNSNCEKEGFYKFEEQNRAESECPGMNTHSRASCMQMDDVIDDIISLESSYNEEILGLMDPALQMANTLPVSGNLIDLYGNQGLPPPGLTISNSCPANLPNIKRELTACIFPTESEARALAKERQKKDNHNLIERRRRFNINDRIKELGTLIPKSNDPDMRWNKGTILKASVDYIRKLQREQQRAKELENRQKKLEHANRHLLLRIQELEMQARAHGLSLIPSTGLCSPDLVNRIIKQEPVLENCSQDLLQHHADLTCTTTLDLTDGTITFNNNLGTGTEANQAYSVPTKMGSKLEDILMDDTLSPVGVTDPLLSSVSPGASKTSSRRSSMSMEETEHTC

For `CC1=NN(c2ccc(C(=O)O)c(N)c2)C(=O)C1`, the IC50 was > 6.48 µM (inactive).

Regarding `COc1ccc(CC2NCCc3cc(OC)c(OC)cc32)cc1OC` (stereo unspecified), the IC50 is 0.925 µM.

With `C[C@@H](O)[C@@H]1NC(=O)[C@H]2CN(C(=O)NC3CCCCC3)CCN2C1=O`, the IC50 is > 6.48 µM (inactive).

As for `O=C(C1CCC(Nc2nccc(-c3ccc4nc(C5CC5)[nH]c(=O)c4c3)n2)CC1)N1CCCC1` (stereo unspecified), the IC50 was > 6.48 µM (inactive).

Regarding `NC(=O)c1cccc(-c2cccs2)c1`, the IC50 was > 6.74 µM (inactive).

Turning to `Oc1ccc2c(c1)C1CCCC1(N1CCOCC1)O2` (stereo unspecified), the IC50 was > 6.48 µM (inactive).

With `O=C(/C=C/c1ccco1)ON1C(=O)c2ccccc2C1=O`, the IC50 was > 6.48 µM (inactive).

With `CN(C)CCOCCOc1ccccc1-c1ccccc1`, the IC50 was > 6.48 µM (inactive).

Turning to `O=C(NC1CCCCC1)N1CCN2C(=O)[C@@H]3CCCN3C(=O)[C@H]2C1`, the IC50 is > 6.48 µM (inactive).

Take `Nc1ccc(O)c(C(=O)O)c1`: the IC50 was 2.52 µM.

Turning to `C=C1c2c(Cl)ccc(O)c2C(O)=C2C(=O)[C@]3(O)C(O)=C(C(N)=O)C(=O)[C@@H](N(C)C)[C@@H]3[C@@H](O)[C@H]12`, the half-inhibitory concentration (IC50) is 2.58 µM.

In the case of `COc1ccc2c(c1)CC(c1nc(Nc3ccc4cnccc4c3)c3ccccc3n1)CO2` (stereo unspecified), the IC50 is > 6.48 µM (inactive).

Take `O=C(O)c1ccc(CS(=O)(=O)c2ccccc2)o1`: the IC50 is > 6.48 µM (inactive).

As to `C=CCNCCOCCOc1ccc(OCC)cc1`, the IC50 was > 6.48 µM (inactive).

Consider `CC[C@@H]1NC(=O)[C@H]2CN(C(=O)NC3CCCCC3)CCN2C1=O`, for which the IC50 was > 6.48 µM (inactive).

`NC(=O)n1c(CCC(=O)O)nc2sc3c(c2c1=O)CCC3`: the IC50 was > 6.75 µM (inactive).

Regarding `O=C1Nc2ccc(S(=O)(=O)NCc3ccccc3)cc2C1=O`, the IC50 was > 6.08 µM (inactive).

As to `C=C1C(C(=O)NCc2ccco2)C1C(=O)NCc1ccco1` (stereo unspecified), the IC50 was > 7.72 µM (inactive).

For the compound `NC(=O)CSc1ccc(C(N)=O)cc1[N+](=O)[O-]`, the IC50 is > 7.11 µM (inactive).

For `Cc1nnc(CNC(=O)c2ccc(-n3cccc3)cc2)o1`, the IC50 was > 6.48 µM (inactive).

Consider `O=C1N[C@@H](CSCc2ccccc2)C(=O)N2CCN(C(=O)NCc3ccccc3)C[C@H]12`, for which the IC50 is > 6.48 µM (inactive).

As for `Cc1cc(C)n(C(=O)/C=C/c2ccco2)n1`, the IC50 is > 6.48 µM (inactive).

Regarding `Brc1c(OCCN2CCNCC2)ccc2ccccc12`, the IC50 was > 6.48 µM (inactive).

`NS(=O)(=O)c1ccc(N=Cc2cc3c(cc2[N+](=O)[O-])OCO3)cc1`: the IC50 was > 6.48 µM (inactive).

In the case of `O=C(NNC(=S)Nc1ccccc1)C(=O)NNC(=S)Nc1ccccc1`, the IC50 is > 6.67 µM (inactive).

Take `O=C(/C=C/c1ccco1)C1=C(O)C(=O)N(CCCN2CCOCC2)C1c1ccco1` (stereo unspecified): the IC50 is > 6.48 µM (inactive).

Take `O=S(=O)(N=S(=O)(/C=C/c1ccccc1)c1ccccc1)c1ccccc1` (stereo unspecified): the IC50 is > 5.36 µM (inactive).

Consider `Cc1ccc(/C(C#N)=C\c2ccco2)cc1`, for which the IC50 was > 6.48 µM (inactive).

For the compound `COc1ccc(C)cc1NS(=O)(=O)c1ccc2c(c1)CCC(=O)N2`, the IC50 is > 6.48 µM (inactive).

As for `CN(C)[C@@H]1C(=O)C(C(=O)NCN2CCCC2)=C(O)[C@@]2(O)C(=O)C3=C(O)c4c(O)cccc4[C@@](C)(O)[C@H]3C[C@@H]12`, the IC50 was > 6.48 µM (inactive).

Turning to `Cc1cc(C)nc(NS(=O)(=O)c2ccc(N3C(=O)C=CC3=O)cc2)n1`, the IC50 is > 6.48 µM (inactive).

For the compound `CC(Oc1ccc2c(C(F)(F)F)cc(=O)oc2c1)C(=O)NN` (stereo unspecified), the IC50 is > 6.56 µM (inactive).

Take `O=C(OCCCC(=O)N1CCOCC1)c1cc(-c2ccco2)nc2ccccc12`: the IC50 is > 6.58 µM (inactive).

Regarding `O=C1N[C@@H](COCc2ccccc2)C(=O)N2CCN(C(=O)NCc3ccccc3)C[C@H]12`, the IC50 was > 6.48 µM (inactive).

With `COCCCNC(=O)/C(C#N)=C/c1ccc(-c2ccc(C(=O)O)c(Cl)c2)o1`, the IC50 was > 6.48 µM (inactive).

Consider `O=C(COC(=O)COc1ccc(Cl)cc1)NCc1ccco1`, for which the IC50 was > 7.21 µM (inactive).

For the compound `S=c1[nH]nc(-c2cccnc2)n1/N=C/C=C/c1ccco1`, the IC50 is > 6.48 µM (inactive).

Regarding `O=C(COC(=O)/C=C/c1ccco1)COC(=O)/C=C/c1ccco1`, the IC50 was > 7.07 µM (inactive).

Turning to `O=C1N[C@@H](CC2CCCCC2)C(=O)N2CCN(C(=O)NCc3ccccc3)C[C@H]12`, the IC50 was > 6.48 µM (inactive).

In the case of `O=C(O)c1cccc(-n2cccc2/C=C2/NC(=O)N(c3ccc(Cl)cc3)C2=O)c1`, the IC50 is > 6.48 µM (inactive).

As for `COC(C)(C)CNC(=O)C1CCN(C2CCN(Cc3cccc(C)n3)CC2)CC1`, the IC50 was > 6.48 µM (inactive).

Take `COc1cc(-c2ccnc(N)n2)ccc1NC(=O)[C@H]1COc2ccccc2O1`: the IC50 was > 6.48 µM (inactive).

For `Cc1cc(N=Cc2ccc([N+](=O)[O-])o2)ccc1S(=O)(=O)O`, the IC50 is > 6.48 µM (inactive).

Take `COc1ccc2c(c1)C1NC(=S)N(c3cccc(C)c3)C(C)(O2)C1C(=O)Nc1ccc(C)cc1C` (stereo unspecified): the IC50 is > 5.71 µM (inactive).

On to `Cc1ccc(-c2nnc3s/c(=C\c4ccco4)c(=O)n23)cc1`, for which the IC50 is > 6.48 µM (inactive).

For `O=C(/C=C/c1ccco1)NC(=S)Nc1cccc(C(=O)O)c1`, the IC50 was > 6.48 µM (inactive).

With `Cc1ccc(C(=O)Nc2ccc([N+](=O)[O-])cn2)o1`, the IC50 is > 6.48 µM (inactive).

As for `CC[C@H](C)[C@@H]1NC(=O)[C@H]2CN(C(=O)Nc3cccc(F)c3)CCN2C1=O`, the IC50 was > 6.48 µM (inactive).

As to `CC(C)[C@@H]1NC(=O)[C@H]2CN(C(=O)NC3CCCCC3)CCN2C1=O`, the IC50 was > 6.48 µM (inactive).

On to `Cc1ccc(COc2ccc(/C=N/N=C3\NC(=O)C(CC(=O)O)S3)cc2)cc1` (stereo unspecified), for which the IC50 is > 6.48 µM (inactive).

For the compound `CCOC(=O)C1C2NC(=S)N(CC)C1(C)Oc1ccc(Br)cc12` (stereo unspecified), the IC50 was > 6.31 µM (inactive).

Regarding `CN1CC(=O)N2CCN(C(=O)NC3CCCCC3)C[C@@H]2C1=O`, the IC50 is > 6.48 µM (inactive).

Consider `Cn1c(SCc2cc(=O)n3c(n2)sc2ccccc23)nnc1C(F)(F)F`, for which the IC50 was > 7.18 µM (inactive).

For the compound `O=C(Nc1ccc(-c2cn[nH]c2)c(C(F)(F)F)c1)C1COc2ccccc2O1` (stereo unspecified), the IC50 is > 6.48 µM (inactive).

Take `O=[N+]([O-])c1ccc(N/N=C/c2ccco2)c(S(=O)(=O)N2CCOCC2)c1`: the IC50 was > 6.48 µM (inactive).

On to `CN1CCN(CCNC(=O)c2cccc(CN(C(=O)c3nc4ccc(-c5cn[nH]c5)cc4s3)C3CC3)c2)CC1`, for which the IC50 was > 6.48 µM (inactive).

Turning to `CN1CC[C@H](Oc2cc(-c3cn[nH]c3)ccc2NC(=O)OCc2ccccc2)C1`, the IC50 was > 6.48 µM (inactive).

Take `CCN(CCN(C)C)Cc1ccc(F)cc1`: the IC50 is > 6.48 µM (inactive).

For the compound `O=C(O)COc1ccc(-n2cccc2)cc1`, the IC50 is > 6.48 µM (inactive).

For the compound `Cc1ccc(S(=O)(=O)C(CNC(=O)c2ccco2)c2cccs2)cc1` (stereo unspecified), the IC50 was > 6.56 µM (inactive).

`O=C1S/C(=C\c2ccco2)C(=O)N1c1ccccc1Cl`: the IC50 entry was “inactive”.

A word on the IC50: it is the point on the concentration scale where inhibition reaches its midpoint.
